{"source": "patent US4581346A", "about": "“Macrolide derivatives” (Eli Lilly and Company, priority 1984, dated 1986)", "test_in_all_cases": "Standard agar-dilution assay, MIC", "type_in_all_cases": "cell-based", "key": {"[1]": {"system": "Streptococcus pneumoniae Park I", "experimental": "(§1) The minimal inhibitory concentrations (MIC's) at which the tylosin derivative (formula 1 compound wherein [drawing 11] and R^3 =mycarosyloxy) inhibits certain bacteria are given in Table II. The MIC's in Table II were determined by standard agar-dilution assays."}, "Escherichia coli EC14": {"system": "Escherichia coli EC14", "experimental": "as §1"}, "[2]": {"system": "Staphylococcus aureus V41", "conditions": "Staphylococcus aureus V41, penicillin-resistant strain", "experimental": "as §1"}, "[3]": {"system": "Streptococcus Group D 9960", "conditions": "GROUPD9960", "experimental": "as §1"}, "Escherichia coli TEM": {"system": "Escherichia coli TEM", "experimental": "as §1"}, "[4]": {"system": "Haemophilus influenzae 76", "conditions": "Haemophilus influenzae 76, ampicillin-resistant strain", "experimental": "as §1"}, "[5]": {"system": "Streptococcus Group D X66", "experimental": "as §1"}, "[6]": {"system": "Staphylococcus aureus X1.1", "experimental": "as §1"}, "[7]": {"system": "Haemophilus influenzae C.L.", "conditions": "ampicillin-sensitive strain", "experimental": "as §1"}, "[8]": {"system": "Streptococcus pyogenes C203", "experimental": "as §1"}, "Escherichia coli N10": {"system": "Escherichia coli N10", "experimental": "as §1"}, "[9]": {"system": "Staphylococcus epidermidis EPI2", "experimental": "as §1"}, "[10]": {"system": "Staphylococcus epidermidis EPI1", "experimental": "as §1"}, "[11]": {"system": "Staphylococcus aureus S13E", "experimental": "as §1"}, "[12]": {"system": "Staphylococcus aureus X400", "experimental": "as §1"}}, "data": [{"molecule": "CCC1OC(=O)CC(O)C(C)C(OC2OC(C)C(OC3CC(C)(O)C(O)C(C)O3)C(N(C)C)C2O)C2CC(O)C(C)(C2)C(=O)C=CC(C)=CC1COC1OC(C)C(O)C(OC)C1OC", "note": "(stereo not drawn) [8,20-Cyclo-Tylosin, 8,20-Cyclo-tylosin]", "values": [{"measurement": "MIC", "setting": "[1]", "value": 2, "unit": "µg/mL"}, {"measurement": "MIC", "setting": "Escherichia coli EC14", "value": "> 128", "unit": "µg/mL"}, {"measurement": "MIC", "setting": "[2]", "value": 2, "unit": "µg/mL"}, {"measurement": "MIC", "setting": "[3]", "value": 32, "unit": "µg/mL"}, {"measurement": "MIC", "setting": "Escherichia coli TEM", "value": "> 128", "unit": "µg/mL"}, {"measurement": "MIC", "setting": "[4]", "value": 128, "unit": "µg/mL"}, {"measurement": "MIC", "setting": "[5]", "value": 32, "unit": "µg/mL"}, {"measurement": "MIC", "setting": "[6]", "value": 1, "unit": "µg/mL"}, {"measurement": "MIC", "setting": "[7]", "value": 128, "unit": "µg/mL"}, {"measurement": "MIC", "setting": "[8]", "value": 1, "unit": "µg/mL"}, {"measurement": "MIC", "setting": "Escherichia coli N10", "value": "> 128", "unit": "µg/mL"}, {"measurement": "MIC", "setting": "[9]", "value": 0.5, "unit": "µg/mL"}, {"measurement": "MIC", "setting": "[10]", "value": 1, "unit": "µg/mL"}, {"measurement": "MIC", "setting": "[11]", "value": 2, "unit": "µg/mL"}, {"measurement": "MIC", "setting": "[12]", "value": 2, "unit": "µg/mL"}]}]}
